“Also recorded” adds a separate entry of the source.

Results on two compounds are retold here after patent US12162811B2, “F-18 labeled chiral pure derivative of hydroxyfuran, preparation method and use thereof” (The First Affiliated Hospital of Sun Yat-sen University, priority 2022, dated 2024).

Series [1] is described as follows: biodistribution in human body (ROI time-activity profiles of source organs). In kind it is in vivo. An excerpt: For the 6 sets of images obtained by Example 5, the ROI was depicted in the whole body images at the first time point and replicated to subsequent time point scans so as to determine the cumulative radioactivity in each source organ. The genital volume was manually adjusted if necessary. Major source organs include brain, thyroid, lung, heart wall, liver, gallbladder, stomach, adrenals, kidneys, pancreas, spleen, uterus (female only), testes (male only), and bone marrow. The biodistribution analysis included muscle and the absorbed dose analysis included bladder. Spinal ROIs were plotted as an alternative to the red bone marrow. Time-activity profiles were derived from each ROI, and cumulative radioactivity for each source organ was expressed as a percentage of the injected dose (% ID).

A further series has as its system tumor lesions. The series is described as follows: whole-body dynamic PET/CT imaging of tumor patients. In kind it is in vivo, human. How it is done: Six patients with different tumors fasted and urinated for at least 6 hours prior to receiving PET/CT scanning, approximately 5, 13, 30, 45 and 60 minutes after injection of (4R, 5R)[^18F]FAA (mean 448±113 MBq), the five consecutive whole-body dynamic PET/CT scanning was conducted for each participant using a uMI 780 scanner (United Imaging Healthcare) or Discovery MI scanner (GE Healthcore). The CT acquisition parameters of the uMI 780 scanner were 120 kV, smart 100-200 mAs, detector coverage of 40 mm, spacing of 0.9875, slice thickness of 1.0 mm, and rotation time of 0.5 s. The PET emission scan time was 1.5 min per bed with 6 beds covering the scanning area. Finally, the PET images were reconstructed by the regularized ordered subset expectation maximization algorithm (R-OSEM, UNITED IMAGING) with attenuation normalization using ACCT images. The CT acquisition parameters of the Discovery MI scanner were 120 kV, smart 120-180 mA, detector coverage of 40 mm, slice thickness of 0.625 mm, pitch to speed of 0.984:1, 39.37 and rotation time of 0.6 s. The PET emission scanning time was 1 min per bed with 6 to 8 beds covering the scanning area. Finally, the PET images were reconstructed by a Bayesian penalized likelihood (BPL) reconstruction algorithm (Q.clear, GE Healthcare) and attenuation nominalization was performed using ACCT images. Urine samples were collected after the last PET/CT scan and total radioactivity of the urine was assessed.

In the next series the test system is HCT8 xenograft tumor. Kind of series: micro-PET/CT imaging of tumor-bearing nude mice after intratumoral or tail vein injection. As to conditions: for SUVmax in the tumor: 5 min after injection; for SUVmax of the tumors: 1 h. In kind it is in vivo, nude mouse. The method, then: A nude mouse model with HCT8 xenograft tumor was established, and dynamic imaging was performed after intratumoral injection upon anesthesia of the tumor-bearing mice: 0.1 mL (about 100 μCi) of the solution prepared automatically with saline dilution with or without supersaturated sodium ascorbate was taken from a 1 mL syringe needle, and the solution was injected intratumorally into the nude mice model with an automatic syringe pump at 0.1 mL/min, and a dynamic 1-h microPET/CT imaging was performed. Delayed imaging was performed: statically imaged 2 h after injection.
Static micro-PET/CT imaging was performed 1 hour after tail vein injection in the anesthetized tumor-bearing mice.

Series [2] can be described thus: radiometrics: residence times and radiation absorbed dose (MIRD). It counts as in vivo, human. The method, then: For the six sets of data obtained through Example 6, the residence times were calculated as the area under each time-activity curve by curve fitting with either a mono-or bi-exponential function model. The residence times of the bladder were generated by the integration of the time-activity curve from zero time to the last emission scan time plus the integration of the function from the last scan time to infinity (physical decay only). These residence times are then used for radiation absorbed dose calculations. The radiation absorbed dose was calculated for each subject using the Medical Internal Radiation Dose (MIRD) algorithm. The absorbed dose in the target area specified by MIRD was calculated according to the standardized Cristy Eckerman 70 kg adult male model, and the effective dose was assessed according to the tissue weighting factors in the publication of International Commission on Radiological Protection.

The conditions of series [3]: comparison PET tracer; cited from earlier work.
The mark [4] stands for this setting: intratumoral injection, with supersaturated sodium ascorbate.
[5] abbreviates: intratumoral injection, without supersaturated sodium ascorbate.

`O=C1O[C@H]([C@@H](O)C[18F])C(O)=C1O` [(4R, 5R)[^18F]FAA]: the “uptake in liver, adrenal glands, choroid plexus, pituitary gland and thyroid (exception of the kidney)” value in series [1] (1 h after injection) is on record as “high uptake”. The “uptake in heart, muscle and brain” value in series [1] (during the imaging phase) was “low”. Moreover, the “uptake in liver, adrenal glands, kidneys, choroid plexus, pituitary gland and thyroid” value in series [1] (earliest imaging time point, most subjects) is “high uptake”. Moreover, in series [1] (human), the route of excretion result is reported as “excreted mainly through the kidneys to the bladder”. The “uptake in spleen, intestine, salivary glands and bone marrow” value in series [1] (slow clearance over time) was “moderate uptake”. The compound also came in with a metastases detected with tumor lesions (6 patients) of 168. The primary lesions detected with tumor lesions (6 patients) worked out at 2. In the series on tumor lesions (6 patients, all tumor lesions), the “mean SUVmax in all tumor lesions” value was 6.89±3.82. For the same compound, the “median SUVmax in all tumor lesions” value in the series on tumor lesions (6 patients, all tumor lesions) is reported as 6.07. The “range of SUVmax in all tumor lesions” value with tumor lesions (6 patients, all tumor lesions) was 1.62-22.85. Besides, in the series on tumor lesions (kidney cancer and intestinal cancer patients), the tumor radioactivity uptake result is listed as “average tumor radioactivity uptake”. Moreover, the “uptake in primary and metastatic tumor foci” value with tumor lesions (thyroid cancer and lung cancer) is on record as “very high uptake”. Also, the safety in humans result in the series on tumor lesions (tumor patients) is reported as “safe for use in humans”. Further, the uptake in tumors entry with tumor lesions (tumor patients) is recorded as “high uptake in tumors”; in the series on HCT8 xenograft tumor (tumor-bearing mice), “certain tumor uptake; also recorded: high uptake in tumors”. Besides, the “effect of added supersaturated sodium ascorbate on metabolism of the tracer in the liver” value in the series on HCT8 xenograft tumor (intratumoral injection, dynamic imaging) was “significantly inhibited”. For the same compound, the “SUVmax in the tumor” value was 165 % ID/g in the series on HCT8 xenograft tumor (setting [4]) and 88 % ID/g with HCT8 xenograft tumor (setting [5]). For the same compound, the results for the “SUVmax of the tumors” value with HCT8 xenograft tumor (setting [4]), in the series on HCT8 xenograft tumor (setting [5]) and with HCT8 xenograft tumor (tail vein injection) were 45 % ID/g, 34 % ID/g and 6.3 % ID/g, respectively. Moreover, the “SUVmax of tumors, delayed imaging” value in the series with HCT8 xenograft tumor (intratumoral injection, without supersaturated sodium ascorbate, 2 h after injection) was 35 % ID/g. Further, in series [2] (ICRP tissue weighting factors), the “mean effective dose (ED)” value amounted to 1.68±0.36E-02 mSv/MBq. Moreover, the absorbed dose stood at 1.89±0.61E-02 mGy/MBq in series [2] (adrenal gland); 4.88±1.21E-03 mGy/MBq in series [2] (brain); 1.87±0.38E-02 mGy/MBq in series [2] (kidney); 3.42±0.75E-02 mGy/MBq in series [2] (liver); 2.95±1.70E-02 mGy/MBq in series [2] (spleen). Besides, the residence time in series [2] (bladder wall) is listed as 1.16±0.54E-03 hours; in series [2] (kidney), 1.77±0.53 E-03 hours; in series [2] (liver) it was 22.5±4.94 E-02 hours; in series [2] (lung) it was 3.18±0.49 E-02 hours; in series [2] (spleen), 2.19±1.59 E-02 hours; in series [2] (thymus), 2.74±1.37E-05 h. In addition, the “mean systemic absorbed dose” value in series [2] (whole body) came to 6.54±1.58E-03 mSv/MBq.

On to [^18F]FDG, for which the “systemic absorbed effective dose” value in series [3] is 1.90±0.36 E-02 mSv/MBq.
